From patent US6451307B1, “3′-exonuclease, production and use thereof” (Aventis Research & Technologies GmbH & Co. KG, priority 1998, dated 2002)
Entries after “also recorded” stand apart in the source; their conditions may differ.

Experiments:
Type in all cases: biochemical, bovine
[1] = system: poly(A)-specific 3′-exonuclease activity; test: Conditions for the in-vitro deadenylation: ions and spermidine (1D TLC); details: for decrease of activity as compared with the activity in the presence of Mg2+: 1 mM divalent ion, L3(A30) RNA; for decrease of activity as compared with the activity in the presence of Mg2+ / influence on deadenylation activity: Poly(A) Sepharose fraction; for influence on deadenylation activity: tail-labeled L3(A30) RNA
Description: (§1) The test conditions for the in-vitro deadenylation were as follows: 1 mM MgCl2, 2.5% (w/v) poly(vinyl alcohol) (Sigma P-8136, Mw 10,000), 100 mM KCl, 0.15 Unit RNAguard, from 5 to 20 fmol of RNA substrate, from 20 to 48% (v/v) buffer (20 mM HEPES (KOH), 0.2 mM EDTA, 0.5 mM DTT, 25% glycerol, pH 7) and the appropriate protein fraction (Åström, J. et al. (1992), see above). The reaction volume was 15 or 25 μl and the incubations were carried out at 30° C. The reactions were then terminated and RNA was purified as described in Moore, C. L. & Sharpe, P. A. (1985), see above. The RNA was analyzed by electrophoresis in 10% polyacrylamide (19:1 acrylamide/bisacrylamide)—7 M urea gels, followed by autoradiography of the resulting gels.
(§2) The deadenylation activity was quantified as follows: L3(A30) RNA substrate, labeled with [α^32P]ATP, was incubated in an in-vitro deadenylation reaction. The reaction products were analyzed by 1D TLC using mobile solvent III (0.75 M K2HPO4, pH 3.5 (H3PO4)). The resulting PEI-Cellulose F plate was dried and scanned in a 400 S Phosphorimager (Molecular Dynamics). The fractions containing released [α^32P]AMP were determined. The quantity, in mol, of released AMP was calculated on the basis of the known specific activity of [α^32P]AMP in the RNA substrate. One unit of deadenylation activity corresponds to the release of 1 pmol of AMP/minute.
The conditions for measuring poly(A) deadenylation activity in accordance with the above-described deadenylation test were determined using Poly(A) Sepharose fractions as the enzyme source and poly(A) tail-labeled L3(A30) RNA as the substrate. The activity was measured in terms of the release of the mononucleotides in the 1D TLC test (see above). The requirement of monovalent (potassium and sodium) and divalent (magnesium, manganese, zinc and calcium) ions for this was investigated.

[2] = system: poly(A)-specific 3′-exonuclease activity; test: Kinetics of the nuclease activity (time course, added poly(A)); details: 20 minutes, 0.5 μl Poly(A) Sepharose fraction, L3(A30) RNA
Description: FIGS. 5A-C show the ongoing degradation of poly(A). The Poly(A) Sepharose fraction was incubated, under in-vitro deadenylation conditions, with X fmol of the L3(A30) RNA substrate which had been labeled with [α-^32P]UTP during in-vitro transcription. The reaction products were fractionated in a 10% polyacrylamide:bisacrylamide 19:1-7 M urea gel. S and P indicate the migration sites of the RNA substrate (S) and the product (P). […] The indicated quantities of poly(A) in ng were added to the reactions.
as §1, with “The reaction volume was 15 or 25 μl and the incubations were carried out at 30° C. The reactions were then terminated and RNA was purified as described in Moore, C. L. & Sharpe, P. A. (1985), see above.” left out
In order to determine whether the nuclease activity degrades RNA substrates in a progressive or distributive manner, the kinetics was first of all determined in an in-vitro deadenylation reaction in the presence of 0.5 μl of a Poly(A) Sepharose fraction and x fmol of L3(A30) RNA substrate which had been labeled overall. […]

[3] = system: poly(A)-specific 3′-exonuclease activity; test: Substrate specificity: Km and Vmax for homopolymer-tailed RNA substrates (Lineweaver-Burke plot); details: Poly(A) Sepharose fraction; tail-labeled RNA substrates
Description: as §1, §2
The RNA substrate specificity of the activity was investigated in two experiments. In a first experiment, the RNA substrates L3(A30), ML45(U30), ML40(C32) and ML43(G30), whose homopolymeric tails had been radioactively labeled, were incubated in an in-vitro deadenylation test (see above). The release of radioactive mononucleotides was measured in the 1D TLC test (see above). The measurement results were used to calculate the Km and Vmax values for each RNA substrate using the Lineweaver-Burke plot (see Table II). In a second experiment, the substrate specificity was measured by incubating RNA substrates containing internal poly(A) segments, followed by plasmid-encoded RNA sequences of increasing length, with Poly(A) Sepharose fractions in an in-vitro deadenylation test. […] It follows from this that RNA tails composed of adenosine residues are the preferred substrate and that only 3′ end-located poly(A) tails are effectively degraded.

| Compound | decrease of activity as compared with the activity in the presence of Mg2+ [1] | influence on deadenylation activity [1] | Km [3] | further results |
| --- | --- | --- | --- | --- |
| [Ca+2] [Ca^2+] | 0.7% | – | – | – |
| [Mn+2] [Mn^2+] | 17% | also active in the presence of Mn^2+ | – | – |
| [Zn+2] [Zn^2+] | 2% | – | – | – |
| [Mg+2] [magnesium ions] | – | – | – | optimum concentration of ion for deadenylation activity [1]: 1 mM |
| [K+] [potassium ions] | – | activity is higher in the presence of potassium ions than in the presence of sodium ions | – | – |
| NCCCCNCCCN [spermidine] | – | no influence on the activity; also recorded: if anything, it is inhibited both at low and at high salt concentrations | – | – |
| poly(A) | – | – | 0.01 µM | effect of added poly(A) on the deadenylation reaction [2]: inhibits the reaction |
| poly(C) | – | – | 0.01 µM | – |
| poly(G) | – | – | 0.007 µM | – |
| poly(U) | – | – | 0.02 µM | – |
